Test results as given in US20220362276A1, “Small Molecule Inhibitors of Viral Replication” (The Trustees of Princeton University, priority 2019, published 2022).
“Also recorded” adds a separate entry of the source.

How the values were obtained:
HSP90AA1 (Hsp90α1) = HSP90AA1 (Hsp90α1) (Homo sapiens, UniProt P07900); test: Two-dimensional thermal proteome profiling (CETSA) in crude cell extract; conditions: isocotoin 0.5-30 μM, 37-66.3 °C
ABHD10 = target: T1, ABHD10 (Homo sapiens, UniProt Q9NUJ1); test: as above; conditions: isocotoin 0.5-30 μM, 37-66.3 °C
T1 sequence (Q9NUJ1 53-306): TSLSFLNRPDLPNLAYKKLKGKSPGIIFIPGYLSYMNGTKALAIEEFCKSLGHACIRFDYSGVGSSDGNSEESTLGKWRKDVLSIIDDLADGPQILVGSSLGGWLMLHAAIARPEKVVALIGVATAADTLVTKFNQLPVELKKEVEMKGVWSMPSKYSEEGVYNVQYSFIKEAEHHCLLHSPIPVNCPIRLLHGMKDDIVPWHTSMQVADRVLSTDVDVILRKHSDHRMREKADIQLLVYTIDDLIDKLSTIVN

p6/Gluc[G1634R] = test: Dose titration against mutant replicon p6/Gluc[G1634R]
[1] = tested on: SHEV-3/Gluc (genotype 3, swine-derived); test: Dose titration against SHEV-3/Gluc replicon; conditions: genotype 3, poor replicative capacity
full-length KernowC1p6 = test: RT-qPCR of HEV RNA, full-length KernowC1p6 in Huh7 cells; assay type: cell-based, hepatitis E virus; conditions: 6.25-25 μM isocotoin, day 6
Protocol: Quantification of HEV RNA by RT-qPCR Assay. Huh7 cells were seeded 42,000 cells/well in 24-well plates. One day post-seeding, the cells were transfected with 10 ng/well KernowC1p6 or KernowC1p6-GAD in vitro transcribed RNA. The next day, the medium on the cells transfected with KernowC1p6 was changed to 0.1% DMSO medium containing 25 μM, 12.5 μM, 6.25 μM, or 0 μM isocotoin. The negative control cells transfected with KernowC1p6-GAD were maintained in medium with 0.1% DMSO. The media on the cells was changed every 2 days to fresh drug-containing or DMSO-containing media. On day 6, cells were harvested and lysed in RLT buffer using 350 μL per well. Cell lysates were homogenized by pipetting 6-7 times with a needle syringe. Total RNA was extracted using BioBasic RNA MiniPreps SuperKit (Amherst, N.Y.). RT-qPCR was performed on the samples using qScript XLT 1-Step RT-qPCR ToughMix (Quanta Bio) according to the manufacturer's instructions. In vitro transcribed KernowC1p6 RNA of known concentration was serially diluted 1:10 and included as controls to generate a standard curve to calculate absolute RNA copies/μL in the samples.

Q: With `COc1cc(O)cc(O)c1C(=O)c1ccccc1` [isocotoin, 4-benzoyl-5-methoxybenzene-1,3-diol] as the compound, how does the “thermal stabilization / soluble protein fraction of HSP90AA1” value (HSP90AA1 (Hsp90α1)) read?
A: The value was “thermal stabilization; also recorded: among hits showing the greatest increase in soluble protein fraction”.

Q: What about the “soluble protein fraction of ABHD10” value (ABHD10) of the same compound?
A: The value was “among hits showing the greatest increase in soluble protein fraction”.

Q: And the “sensitivity of p6/Gluc[G1634R], in words” value (p6/Gluc[G1634R])?
A: The value was “higher sensitivity to isocotoin than to ribavirin”.

Q: What about the “inhibition of SHEV-3/Gluc replication, in words” value [1] of the same compound?
A: Its value is “modest inhibitory effect; also recorded: inhibits replication”.

Q: What about the “inhibition of full-length KernowC1p6 replication, in words” value (full-length KernowC1p6) of the same compound?
A: The value was “dose-dependent manner; also recorded: inhibits replication”.
